PMC8936499, “Cytochrome P450 168A1 from Pseudomonas aeruginosa is involved in the hydroxylation of biologically relevant fatty acids” (PLoS ONE, 2022)
Like-named read-outs stand apart in the source and are kept apart here. Marks after values point to notes of the source that are not given here.

How the values were obtained:
Candida albicans CYP51 = system: Candida albicans CYP51; design: method as in PMID 23274672, PMID 20625155; settings: cited from earlier work
CYP168A1 [1] = target: T1, CYP168A1 (Pseudomonas aeruginosa, UniProt Q9I107); test: Azole binding studies (spectral titration, type II difference spectra); settings: read-out: apparent dissociation constant (Kd) of azole-CYP168A1 complex; 2 μM CYP168A1, rearranged Morrison equation, duplicate
T1 sequence (Q9I107 entry or part of it): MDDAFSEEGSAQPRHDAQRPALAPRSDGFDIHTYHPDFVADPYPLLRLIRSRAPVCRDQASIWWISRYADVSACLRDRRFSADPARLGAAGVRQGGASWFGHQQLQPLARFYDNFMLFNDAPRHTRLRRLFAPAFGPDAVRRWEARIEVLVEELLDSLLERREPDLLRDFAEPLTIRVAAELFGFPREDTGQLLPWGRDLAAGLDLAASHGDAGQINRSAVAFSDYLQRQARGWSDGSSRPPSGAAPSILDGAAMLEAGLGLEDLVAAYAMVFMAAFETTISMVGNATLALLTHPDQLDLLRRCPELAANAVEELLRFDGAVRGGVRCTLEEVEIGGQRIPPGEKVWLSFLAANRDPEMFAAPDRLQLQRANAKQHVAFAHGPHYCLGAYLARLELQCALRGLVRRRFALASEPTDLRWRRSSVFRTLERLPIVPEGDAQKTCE

CYP168A1 [2] = target: T1, CYP168A1; settings: 50 μM substrate, 2 μM CYP168A1, 3 hours at 37°C
[3] = system: Streptomyces peucetius CYP147F1; design: method as in PMID 24055535; settings: cited from earlier work
CYP168A1 [4] = settings: cited from earlier work
CYP168A1 [5] = target: T1, CYP168A1; test: Fatty acid binding studies (spectral titration, type I difference spectra); settings: for Low- to high-spin state change (%): from ΔAmax; for Kd: read-out: Ks, mean of four replicates ± SD
Method: The absorbance difference spectra from 500 nm to 350 nm were determined after each incremental addition of fatty acid. Ligand saturation curves were constructed from the change in absorbance (ΔApeak-trough) against fatty acid concentration. The dissociation constant for the fatty acid-CYP168A1 complex (Ks) was determined by nonlinear regression (Levenberg-Marquardt algorithm) using a rearrangement of the Morrison equation [14] and the Michaelis-Menten equation. […]. All fatty acid binding experiments were undertaken in quadruplicate.
In between ligand binding determinations, the quartz cuvettes were washed with deionized water and then soaked for 30 min in 2-propanol at room temperature to desorb any residual fatty acids from the cuvette surfaces, followed by rinsing a further three-times with 2-propanol and then deionized water prior to drying.

CYP168A1 [6] = target: T1, CYP168A1; settings: for Turnover no., ω-1- carbon hydroxylated / % Product, ω-1- carbon hydroxylated / Turnover no., ω-2- carbon hydroxylated / % Product, ω-2- carbon hydroxylated: 100 μM substrate, mean of two replicates ± standard error; for Turnover no., ω-1- carbon hydroxylated / Turnover no., ω-2- carbon hydroxylated: 0.25 μM CYP168A1, 37°C; for % Product, ω-1- carbon hydroxylated / % Product, ω-2- carbon hydroxylated: 0.25 μM CYP168A1, 2.5 h at 37°C; for hydroxylation rate at both the ω-1- and ω-2-positions (total): sum of ω-1 and ω-2 turnover
CYP168A1 [7] = settings: comparison with ref 40
CYP168A1 [8] = settings: cited from earlier work; remark: listed apart in the source
CYP168A1 [9] = system: CYP168A1; design: method as in PMID 35085556; settings: arachidonic acid as substrate, CYP168A1:ketoconazole ratio 5μM:10μM; cited from earlier work
CYP168A1 [10] = target: T1, CYP168A1; type: biochemical; settings: 0.5% DMF in the CYP168A1 assay system
Method: Assay mixtures were incubated at 37°C for 5 min prior to initiation with 4 mM β-NADPH-Na4 and then incubated for a further 2.5 hours at the same temperature. Fatty acids and their hydroxylated products were recovered by extraction with dichloromethane and dried in a vacuum centrifuge. TMS derivatisation of the samples and analysis by GCMS were performed as previously described. Percentage product formation was calculated from the GC peak areas of the fatty acid and the hydroxylated metabolites, with compound identities confirmed by mass fragmentation patterns of fatty acid standards.
Control assays contained no azole, but an equivalent volume of DMF. Experiments were undertaken in duplicate.

[11] = 5 μM CYP168A1, cuvette path length 10 mm
[12] = 5 μM CYP168A1, path length 10 mm
[13] = 5 μM CYP168A1, 0.1 M Tris-HCl pH 8.1, room temperature, rearranged Morrison equation

Structure (SMILES): C[C@@H](c1ncncc1F)[C@](O)(Cn1cncn1)c1ccc(F)cc1F [voriconazole]
- Kd (Candida albicans CYP51): 10 nM
- Kd (CYP168A1 [1]): 2050 ± 540 nM

Structure (SMILES): CC(C)CCC[C@@H](C)[C@H]1CC[C@H]2[C@@H]3CC=C4C[C@@H](O)CC[C@]4(C)[C@H]3CC[C@]12C [cholesterol]
- oxygenated products formed (CYP168A1 [2]): no oxygenated products

Structure (SMILES): CCCCCCCCCCCC(=O)O [lauric acid]
- enzyme molecules undergoing low- to high-spin state transition [3]: 95%
- CYP168A1 Km, fold higher than the Ks value (CYP168A1 [4]): 25 fold
- CYP168A1 turnover number (CYP168A1 [4]): 0.138 min⁻¹

Structure (SMILES): CCCCCC/C=C\CCCCCCCC(=O)O [Palmitoleic acid, palmitoleic acid]
- fold-difference in apparent Ks values compared to stearic and linoleic acids (CYP168A1 [5]): ~3 fold
- ΔAmax (CYP168A1 [5]; [11]): 0.185 ±0.006
- Low- to high-spin state change (%) (CYP168A1 [5]; [12]): 37.0 ±1.2%
- Low- to high-spin state change (%) (CYP168A1 [5]; 5 μM CYP168A1, path length 10 mm, listed as palmitoleic acid): 37%
- Kd (CYP168A1 [5]; [13]): 155 ± 83 nM
- Kd (CYP168A1 [5]; 5 μM CYP168A1, 0.1 M Tris-HCl pH 8.1, room temperature, rearranged Morrison equation, listed as palmitoleic acid): ~150 nM
- Turnover no., ω-1- carbon hydroxylated (CYP168A1 [6]): 0.38 ± 0.06 min⁻¹
- Turnover no., ω-1- carbon hydroxylated (CYP168A1 [6]; listed as palmitoleic acid): 0.38 min⁻¹
- % Product, ω-1- carbon hydroxylated (CYP168A1 [6]): 15 ± 2.4%

Structure (SMILES): CCCCCCCCCCCCCC(=O)O [Myristic acid, myristic acid]
- fold-difference in apparent Ks values compared to stearic and linoleic acids (CYP168A1 [5]): ~5 fold
- Low- to high-spin state change (%) (CYP168A1 [5]; [12]): 22.8 ±1.6%
- Low- to high-spin state change (%) (CYP168A1 [5]; 5 μM CYP168A1, path length 10 mm, listed as myristic acid): 23%
- Kd (CYP168A1 [5]; [13]): 249 ± 103 nM
- Kd (CYP168A1 [5]; 5 μM CYP168A1, 0.1 M Tris-HCl pH 8.1, room temperature, rearranged Morrison equation, listed as myristic acid): 250 nM
- catalytic turnover, fold lower than palmitic acid (CYP168A1 [6]): 5.3 fold
- fold less ω-1-hydroxy product formed than with palmitic acid as substrate (CYP168A1 [6]): 4.7 fold
- fold less ω-2-hydroxy product formed than with palmitic acid as substrate (CYP168A1 [6]): 10.3 fold
- Turnover no., ω-1- carbon hydroxylated (CYP168A1 [6]): 0.27 ± 0.02 min⁻¹
- Turnover no., ω-2- carbon hydroxylated (CYP168A1 [6]): 0.033 ± 0.001 min⁻¹
- % Product, ω-1- carbon hydroxylated (CYP168A1 [6]): 11 ± 0.6%
- % Product, ω-2- carbon hydroxylated (CYP168A1 [6]): 1.3 ± 0.03%
- hydroxylation rate at both the ω-1- and ω-2-positions (total) (CYP168A1 [6]): 0.30 min⁻¹

Structure (SMILES): CCCCC/C=C\C/C=C\CCCCCCCC(=O)O [Linoleic acid, linoleic acid]
- ΔAmax (CYP168A1 [5]; [11]): 0.142 ±0.013
- Low- to high-spin state change (%) (CYP168A1 [5]; [12]): 28.3 ±2.6%
- Low- to high-spin state change (%) (CYP168A1 [5]; 5 μM CYP168A1, path length 10 mm, listed as linoleic acid): 28%
- Kd (CYP168A1 [5]; [13]): < 50 nM
- Turnover no., ω-1- carbon hydroxylated (CYP168A1 [6]): 0.35 ± 0.03 min⁻¹
- Turnover no., ω-1- carbon hydroxylated (CYP168A1 [6]; listed as linoleic acid): 0.35 min⁻¹
- % Product, ω-1- carbon hydroxylated (CYP168A1 [6]): 14 ± 1.3%

Structure (SMILES): C[C@]12CC[C@H]3[C@@H](CCC4=CC(=O)CC[C@@]43C)[C@@H]1CC[C@@H]2O [testosterone]
- oxygenated products formed (CYP168A1 [2]): no oxygenated products

Structure (SMILES): CCCCCCCC/C=C\CCCCCCCC(=O)O [Oleic acid, oleic acid]
- ΔAmax (CYP168A1 [5]; [11]): 0.277 ±0.014
- Low- to high-spin state change (%) (CYP168A1 [5]; [12]): 55.4 ±2.8%
- Low- to high-spin state change (%) (CYP168A1 [5]; 5 μM CYP168A1, path length 10 mm, listed as oleic acid): 55%
- Kd (CYP168A1 [5]; [13]): 142 ± 12 nM
- Kd (CYP168A1 [5]; 5 μM CYP168A1, 0.1 M Tris-HCl pH 8.1, room temperature, rearranged Morrison equation, listed as oleic acid): ~150 nM
- % Product, ω-1- carbon hydroxylated (CYP168A1 [6]): 49 ± 1.2%

Structure (SMILES): CCCCCCCCCCCCCCCC(=O)O [Palmitic acid, palmitic acid]
- fold-difference in apparent Ks values compared to stearic and linoleic acids (CYP168A1 [5]): ~2 fold
- ΔAmax (CYP168A1 [5]; [11]): 0.290 ±0.015
- Low- to high-spin state change (%) (CYP168A1 [5]; [12]): 58.1 ±3.0%
- Low- to high-spin state change (%) (CYP168A1 [5]; 5 μM CYP168A1, path length 10 mm, listed as palmitic acid): 58%
- Kd (CYP168A1 [5]; [13]): 117 ± 56 nM
- Kd (CYP168A1 [5]; 5 μM CYP168A1, 0.1 M Tris-HCl pH 8.1, room temperature, rearranged Morrison equation, listed as palmitic acid): 120 nM
- Turnover no., ω-1- carbon hydroxylated (CYP168A1 [6]): 1.27 ± 0.10 min⁻¹
- Turnover no., ω-2- carbon hydroxylated (CYP168A1 [6]): 0.34 ± 0.10 min⁻¹
- Turnover no., ω-1- carbon hydroxylated (CYP168A1 [6]; listed as palmitic acid): 1.27 min⁻¹
- Turnover no., ω-2- carbon hydroxylated (CYP168A1 [6]; listed as palmitic acid): 0.34 min⁻¹
- % Product, ω-1- carbon hydroxylated (CYP168A1 [6]): 49 ± 3.8%
- % Product, ω-2- carbon hydroxylated (CYP168A1 [6]): 13 ± 4.0%
- hydroxylation rate at both the ω-1- and ω-2-positions (total) (CYP168A1 [6]): 1.61 min⁻¹
- turnover, fold greater than observed with Mycobacterium tuberculosis CYP124 (CYP168A1 [7]): 23 fold

Structure (SMILES): CC(C)CCC[C@@H](C)[C@H]1CC[C@H]2[C@@H]3CCC4=CC(=O)CC[C@]4(C)[C@H]3CC[C@]12C [cholesta-4-ene-3-one]
- oxygenated products formed (CYP168A1 [2]): no oxygenated products

Structure (SMILES): Clc1ccc(COC(Cn2ccnc2)c2ccc(Cl)cc2Cl)c(Cl)c1 (stereo not drawn) [miconazole]
- Kd (Candida albicans CYP51): 26 nM
- Kd (CYP168A1 [1]): 190 ± 60 nM

Structure (SMILES): CC(C)(C)C(O)(CCc1ccc(Cl)cc1)Cn1cncn1 (stereo not drawn) [tebuconazole]
- Kd (Candida albicans CYP51): 36 nM
- Kd (CYP168A1 [1]): 180 ± 10 nM

Structure (SMILES): CCCCCCCCCCCCCCCCCC(=O)O [Stearic acid, stearic acid]
- ΔAmax (CYP168A1 [5]; [11]): 0.328 ±0.020
- Ks in this study, fold lower than recently reported (CYP168A1 [5]; compared with ref 28): over 6 fold
- Low- to high-spin state change (%) (CYP168A1 [5]; [12]): 65.6 ±4.1%
- Low- to high-spin state change (%) (CYP168A1 [5]; 5 μM CYP168A1, path length 10 mm, listed as stearic acid): 66%
- Kd (CYP168A1 [5]; [13]): < 50 nM
- catalytic turnover, fold greater than that for linoleic acid (CYP168A1 [6]): 3.5 fold
- fold less ω-1-hydroxy product formed than with palmitic acid as substrate (CYP168A1 [6]): 1.2 fold
- fold less ω-2-hydroxy product formed than with palmitic acid as substrate (CYP168A1 [6]): 2 fold
- Turnover no., ω-1- carbon hydroxylated (CYP168A1 [6]): 1.07 ± 0.09 min⁻¹
- Turnover no., ω-2- carbon hydroxylated (CYP168A1 [6]): 0.17 ± 0.01 min⁻¹
- % Product, ω-1- carbon hydroxylated (CYP168A1 [6]): 41 ± 2.9%
- % Product, ω-2- carbon hydroxylated (CYP168A1 [6]): 6.6 ± 0.5%
- hydroxylation rate at both the ω-1- and ω-2-positions (total) (CYP168A1 [6]): 1.24 min⁻¹
- Kd (CYP168A1 [8]; read-out: Ks reported for P. aeruginosa CYP168A1): 327 nM

Structure (SMILES): CCCCC/C=C\C/C=C\C/C=C\C/C=C\CCCC(=O)O [Arachidonic acid, arachidonic acid]
- Ks value, fold larger than stearic acid (CYP168A1 [5]): 9000 fold
- fold-difference in apparent Ks values compared to stearic and linoleic acids (CYP168A1 [5]): ~9160 fold
- ΔAmax (CYP168A1 [5]; 5 μM CYP168A1, cuvette path length 4.5 mm): 0.071 ±0.009 ^b
- Ks in this study, fold higher than recently reported (CYP168A1 [5]; compared with ref 28): over 400 fold
- Low- to high-spin state change (%) (CYP168A1 [5]; 5 μM CYP168A1, path length 4.5 mm): 31.6 ±4.0 ^b %
- Low- to high-spin state change (%) (CYP168A1 [5]; 5 μM CYP168A1, path length 4.5 mm, listed as arachidonic acid): 32%
- Kd (CYP168A1 [5]; 5 μM CYP168A1, Michaelis-Menten equation, saturation not achieved at 660 μM): 458000 ± 87000 nM
- Kd (CYP168A1 [5]; 5 μM CYP168A1, Michaelis-Menten equation, saturation not achieved at 660 μM, listed as arachidonic acid): ~460000 nM
- Kd (CYP168A1 [8]): 960 nM
- CYP168A1 turnover number (CYP168A1 [4]): 0.222 min⁻¹

Structure (SMILES): CC(=O)N1CCN(c2ccc(OCC3COC(Cn4ccnc4)(c4ccc(Cl)cc4Cl)O3)cc2)CC1 (stereo not drawn) [ketoconazole]
- reduction in enzyme activity (CYP168A1 [9]): ~70%

Structure (SMILES): CN(C)C=O [DMF, dimethylformamide]
- reduction in oleic acid turnover (CYP168A1 [10]): 10 fold
